Experimental data published in article PMC3914891, “Pentacyclic Nitrofurans with In Vivo Efficacy and Activity against Nonreplicating Mycobacterium tuberculosis” (PLoS ONE, 2014).
≈ marks a conversion by molar mass, not a printed value. Like-named read-outs stand apart in the source and are kept apart here. Marks after values point to notes of the source that are not given here.

What was measured:
M. ulcerans (ATCC 35840) = assay: MIC by agar proportion method: M. ulcerans; type: cell-based; settings: Mycobacterium ulcerans, ATCC35840, 672 h; agar proportion method, 4 weeks; read-out: Minimum Inhibitory Concentration, M. ulcerans
M. tuberculosis = assay: MIC determination, microbroth dilution, M. tuberculosis; type: cell-based, Mycobacterium tuberculosis; settings: for MIC: Mycobacterium tuberculosis
[1] = system: Staphylococcus aureus (ATCC 29213); assay: MIC, spectrum of activity: S.a.; type: cell-based; settings: ATCC29213, read-out: Minimum Inhibitory Concentration, S.a
[2] = system: Streptococcus pneumoniae (R6); assay: MIC, spectrum of activity: S.pn; type: cell-based; settings: read-out: Minimum Inhibitory Concentration, S. Pn.
[3] = cited from earlier work
M. kansasii (ATCC 12478) = assay: MIC, non-tuberculosis mycobacteria: M. kansasii; type: cell-based; settings: Mycobacterium kansasii, ATCC12478, 168 h; broth dilution, visual inspection, 7 days; read-out: Minimum Inhibitory Concentration, M. kansasii
[4] = In vitro cytotoxicity against Vero cells; settings: African green monkey, Vero cells (kidney epithelial cells, ATCC CCL-81)
Vero cells = assay: In vitro cytotoxicity against Vero cells
[5] = system: Klebsiella pneumoniae (ATCC 33495); assay: MIC, spectrum of activity: Klebsiella pneumoniae; type: cell-based; settings: ATCC33495
[6] = system: Proteus mirabilis(ATCC 25933); assay: MIC, spectrum of activity: Proteus mirabilis; type: cell-based; settings: ATCC25933
[7] = mouse, plasma; cited from earlier work
E. coli K12 ∆tolC = type: cell-based; settings: E. coli K12 ∆tolC (efflux pump deficient)
M. tuberculosis Erdman = settings: for Log10CFU Reduction (SEM), lungs / Log10CFU Reduction (SEM), spleen: vs untreated
[8] = system: Escherichia coli (ATCC 700926); assay: MIC, spectrum of activity: E.c.; type: cell-based; settings: ATCC700926, read-out: Minimum Inhibitory Concentration, E.c.
[9] = system: Streptococcus pyogenes (ATCC 700294); assay: MIC, spectrum of activity: S.py; type: cell-based; settings: ATCC700294, read-out: Minimum Inhibitory Concentration, S. Py.
[10] = system: Bacillus subtilis (ATCC 23857); assay: MIC, spectrum of activity: B.s.; type: cell-based; settings: ATCC23857, read-out: Minimum Inhibitory Concentration, B.s.
[11] = system: Staphylococcus aureus (NRS70); assay: MIC, spectrum of activity: MRSA; type: cell-based; settings: read-out: Minimum Inhibitory Concentration, MRSA
[12] = system: Proteus vulgaris (ATCC 33420); assay: MIC, spectrum of activity: Proteus vulgaris; type: cell-based; settings: ATCC33420
M. fortuitum (ATCC 6841) = assay: MIC, non-tuberculosis mycobacteria: M. fortuitum; type: cell-based; settings: Mycolicibacterium fortuitum, ATCC6841, 72 h; broth dilution, visual inspection, 3 days; read-out: Minimum Inhibitory Concentration, M. fortuitum
[13] = system: hypoxic M. tuberculosis strain H37Rv; assay: NRP bacteria under hypoxia (rapid anaerobic dormancy model); type: cell-based, Mycobacterium tuberculosis
[14] = system: Bacillus anthracis sterne 34F2; assay: microbe, parasite or virus in culture; type: cell-based; settings: STERNE34F2, read-out: Minimum Inhibitory Concentration, B.a.
[15] = system: Burkholderia cepacia (ATCC 25416); assay: MIC, spectrum of activity: B.c.; type: cell-based; settings: ATCC25416, read-out: Minimum Inhibitory Concentration, B.c.
[16] = rat, in vivo, cited from earlier work
H37Rv-wt = assay: microbe, parasite or virus in culture; type: cell-based, M. tuberculosis; settings: Mycobacterium tuberculosis
[17] = rats; IV 10 mg/kg and oral 100 mg/kg
M. tuberculosis H37Rv = assay: Minimum bactericidal concentration determination; type: cell-based, Mycobacterium tuberculosis
[18] = system: Stenotrophomonas maltophilia (ATCC 13637); assay: MIC, spectrum of activity: S.m.; type: cell-based; settings: ATCC13637, read-out: Minimum Inhibitory Concentration, S.m.
[19] = system: Pseudomonas aeruginosa (PA01); assay: microbe, parasite or virus in culture; type: cell-based
[20] = system: Enterococcus faecalis (ATCC 33186); assay: MIC, spectrum of activity: E.f.; type: cell-based; settings: ATCC33186, read-out: Minimum Inhibitory Concentration, E.f.
in vitro = settings: mouse, microsomes
[21] = system: M. tuberculosis strain H37Rv (mid-log and nutrient-starved); assay: Nutrient starvation model of nonreplicating persisters; type: cell-based, Mycobacterium tuberculosis
[22] = group 1: 9a 300 mg/kg QD oral, 9 days, in 0.5% methylcellulose in DI-H2O
[23] = group 2: 9a 300 mg/kg QD oral, 9 days, in 30% Captisol in DI-H2O
[24] = group 3: 9a 300 mg/kg QD oral, 9 days, in 10% Vitamin E TPGS in DI-H2O
[25] = group 4: 9a 300 mg/kg QD oral, 9 days, in 0.5% Tween 80 in DI-H2O
[26] = group 5: 9a 300 mg/kg QD oral, 9 days, in 20% cyclodextrin in DI-H2O
[27] = group 6: 9a 300 mg/kg QD oral, 9 days, in cold PEG (50:35:15 H2O:PEG300:PG)

In the case of O=[N+]([O-])c1ccc(C2=NOC(c3ccc(N4CCC(Oc5ccc(OC(F)(F)F)cc5)CC4)cc3)C2)o1 (stereo not shown) [Compound 9a, 3-(5-Nitrofuran-2-yl)-5-(4-(4-(4-(trifluoromethoxy)phenoxy)piperidin-1-yl)phenyl)-4,5-dihydroisoxazole], the MIC (M. ulcerans (ATCC 35840)) is reported as 0.02 to 0.05 µg/mL (≈ 0.0387 to 0.0966 µM), the “fold more potent than PA-824 (MIC)” value (M. tuberculosis; M. tuberculosis MIC compared with PA-824) is reported as 20 fold and the MIC (M. tuberculosis; 168 h, read-out: M. tb. MIC) is reported as 0.024 µg/mL. The MIC (M. tuberculosis; M. tuberculosis, […], read-out: MIC) was 0.046 µM, the MIC [1] was 50 µg/mL (≈ 96.6 µM) and the MIC [2] was 100 µg/mL (≈ 193 µM). The “Solubility (pH 7.4)” value [3] was 2.7 ^h µg/mL, the MIC (M. kansasii (ATCC 12478)) was 3.13 to 6.25 µg/mL (≈ 6.05 to 12.1 µM) and the IC50 [4] was 19.4 µg/mL (≈ 37.5 µM). The “Selective Index (Cytox/MIC)” value (Vero cells) was 808, the MIC [5] was > 200 µg/mL and the MIC [6] was > 200 µg/mL. For the same molecule, the “Plasma Protein binding” value [7] was 99.9 ^h %, the “Minimum Inhibitory Concentration, E.c. ΔtolC” value (E. coli K12 ∆tolC) was 50 µg/mL and the “reduction of bacterial load in lungs” value (M. tuberculosis Erdman; GKO mice, 300 mg/kg oral daily, 9 days, across formulations) was 91–97%. For the same molecule, the “reduction in bacillary load, lungs and spleens” value (M. tuberculosis Erdman; GKO mice, after 9 days of treatment) was > 90%, the tolerability (M. tuberculosis Erdman; GKO mice, daily oral administration at 300 mg/kg, 9 days, each of six formulations) was “well tolerated” and the “Log10CFU Reduction (SEM), lungs” value (M. tuberculosis Erdman; [22]) was 1.06 (0.18) Log10CFU. The “Log10CFU Reduction (SEM), lungs” value (M. tuberculosis Erdman; [23]) was 1.30 (0.20) Log10CFU, the “Log10CFU Reduction (SEM), lungs” value (M. tuberculosis Erdman; [24]) was 1.47 (0.18) Log10CFU and the “Log10CFU Reduction (SEM), lungs” value (M. tuberculosis Erdman; [25]) was 1.38 (0.16) Log10CFU. The “Log10CFU Reduction (SEM), lungs” value (M. tuberculosis Erdman; [26]) was 1.08 (0.15) Log10CFU, the “Log10CFU Reduction (SEM), lungs” value (M. tuberculosis Erdman; [27]) was 1.10 (0.21) Log10CFU and the “Log10CFU (SEM), lungs” value (M. tuberculosis Erdman; [22]) was 7.01 (0.11) Log10CFU. The “Log10CFU (SEM), lungs” value (M. tuberculosis Erdman; [23]) was 6.77 (0.14) Log10CFU, the “Log10CFU (SEM), lungs” value (M. tuberculosis Erdman; [24]) was 6.61 (0.11) Log10CFU and the “Log10CFU (SEM), lungs” value (M. tuberculosis Erdman; [25]) was 6.69 (0.07) Log10CFU. For the same molecule, the “Log10CFU (SEM), lungs” value (M. tuberculosis Erdman; [26]) was 6.99 (0.06) Log10CFU, the “Log10CFU (SEM), lungs” value (M. tuberculosis Erdman; [27]) was 6.99 (0.15) Log10CFU and the “Log10CFU Reduction (SEM), spleen” value (M. tuberculosis Erdman; [22]) was 0.95 (0.18) Log10CFU. For the same molecule, the “Log10CFU Reduction (SEM), spleen” value (M. tuberculosis Erdman; [23]) was 1.48 (0.17) Log10CFU, the “Log10CFU Reduction (SEM), spleen” value (M. tuberculosis Erdman; [24]) was 1.77 (0.27) Log10CFU and the “Log10CFU Reduction (SEM), spleen” value (M. tuberculosis Erdman; [25]) was 1.17 (0.18) Log10CFU. The “Log10CFU Reduction (SEM), spleen” value (M. tuberculosis Erdman; [26]) was 1.44 (0.16) Log10CFU, the “Log10CFU Reduction (SEM), spleen” value (M. tuberculosis Erdman; [27]) was 1.03 (0.20) Log10CFU and the “Log10CFU (SEM), spleen” value (M. tuberculosis Erdman; [22]) was 6.25 (0.11) Log10CFU. For the same molecule, the “Log10CFU (SEM), spleen” value (M. tuberculosis Erdman; [23]) was 5.72 (0.09) Log10CFU, the “Log10CFU (SEM), spleen” value (M. tuberculosis Erdman; [24]) was 5.43 (0.23) Log10CFU and the “Log10CFU (SEM), spleen” value (M. tuberculosis Erdman; [25]) was 6.03 (0.12) Log10CFU. For the same molecule, the “Log10CFU (SEM), spleen” value (M. tuberculosis Erdman; [26]) was 5.76 (0.08) Log10CFU, the “Log10CFU (SEM), spleen” value (M. tuberculosis Erdman; [27]) was 6.17 (0.14) Log10CFU and the MIC [8] was > 200 µg/mL. For the same molecule, the MIC [9] was 200 µg/mL (≈ 387 µM), the MIC [10] was 100 µg/mL (≈ 193 µM) and the MIC [11] was 50 µg/mL (≈ 96.6 µM). For the same molecule, the MIC [12] was > 200 µg/mL, the MIC (M. fortuitum (ATCC 6841)) was 6.25 to 12.5 µg/mL (≈ 12.1 to 24.2 µM) and the “% Growth vs. Control” value [13] was <0.1%. For the same molecule, the “killing of hypoxic bacilli” value ([13]; 10 µg/mL, NRP-2 bacilli) was > 99.9%, the MIC [14] was 12.5 µg/mL (≈ 24.2 µM) and the MIC [15] was 50 µg/mL (≈ 96.6 µM). The Vd ([16]; iv, 10 mg/kg) was 6.72 (1.10) L/kg, the “fe (fraction excreted unchanged in urine)” value ([16]; iv, 10 mg/kg) was 0.04 (0.01) % and the “AUC0-∞” value ([16]; po, 100 mg/kg) was 10.2 (9.1) mg h/L. The “Cmin,24 h” value ([16]; po, 100 mg/kg) was 0.17 (0.16) mg/L, the Cmax [16] was 850 ng/mL and the “Cmin,24 h” value [16] was 0.17 µg/mL. For the same molecule, the MIC (H37Rv-wt) was 0.025 µg/mL (≈ 0.0483 µM), the “Toxicity by intravenous and oral dosing” value [17] was “non-toxic” and the MBC (M. tuberculosis H37Rv) was 3.13–6.25. The Classification (M. tuberculosis H37Rv; cidal or static from MBC versus MIC) was “Static (static (MBC/MIC >4))”, the MIC [18] was 25 µg/mL (≈ 48.3 µM) and the MIC [19] was > 200 µg/mL. For the same molecule, the MIC [20] was > 200 µg/mL, the half-life (in vitro) was 5.06 h and the “reduction in viability (killing) of actively growing culture” value [21] was 80%. The “reduction in viability of nutrient starved bacilli” value [21] was 80%.
